The target in one experiment is Yeast α-Glucosidase. Kind of experiment: Yeast α-glucosidase activity assay. It counts as biochemical, S. cerevisiae. Particulars: pH 6.8, 37 °C, p-nitrophenyl-α-D-glucopyranoside 1 mM; read-out: Yeast α-Glucosidase, IC50 ± SE. On the procedure:
(§1) Taken together, these considerations prompted us to evaluate a series of lupanes with amide function or polyamine chain 11, 12, 16, 18, and 22–26 for α-glucosidase inhibition. Initially, they were screened against α-glucosidase of S. cerevisiae as an accessible and high-throughput model. Confirmatory experiments were performed on isolated rough endoplasmic reticulum vesicles from rat liver, which contain neutral α-glucosidases I and II in a membrane-bound form.
In a 96-well flat transparent plate, the 0.12 U/mL enzyme solution (EC 3.2.1.20, expressed in S. cerevisiae, Sigma #G0660, St. Louis, MO, USA) was incubated with test compounds in 67 mM PBS (pH 6.8) at 37 °C for 5 min. Then, p-nitrophenyl-α-D-glucopyranoside (Sigma #N1377, St. Louis, MO, USA) was added to 1 mM final concentration and an increase in absorbance was recorded for 15 min at 405 nm wavelength with Infinite M200 PRO microplate reader (Tecan, Austria). Test compounds were dissolved in DMSO and diluted to the desired concentration in 67 mM PBS (pH 6.8) supplemented with 0.01% Tween 80 to avoid aggregation. Final DMSO concentration was <0.25% in sample wells, and it was also introduced in control and blank wells. […] Due to the absence of normal distribution of data, a Mann–Whitney U-test was used to determine statistical significance versus enzyme control using GraphPad Prism 8.0.1.

For experiment [1], the system named is Rat Liver ER Neutral α-Glucosidase. Kind of experiment: Endoplasmic reticulum α-glucosidase activity assay. It counts as biochemical.
From the text: as §1, with “Betulinic acid inhibits yeast α-glucosidase activity and interferes with N-linked glycan modifications to cell-surface intercellular adhesion molecule-1 (ICAM-1) in human lung carcinoma A549 cells in a similar manner to castanospermine, an inhibitor of endoplasmic reticulum α-glucosidases I and II [66]. […] Taken” for “Taken”
Endoplasmic reticulum was isolated from hepatocytes of decapitated male Sprague-Dawley rats, which were starved overnight and sacrificed the next morning. All experiments were approved by Volgograd regional ethic committee. The whole procedure was performed at 4 °C. In brief, a fresh tissue sample from an animal was washed twice with 10 mL of PBS to remove residual blood. The tissue was placed on a paper towel in order to absorb excess liquid and blood clots, if present. It was cut further into small pieces (1.5–2 cm) and washed once more. […] Homogenate was centrifuged at 1000× g for 10 min at 4 °C. After removal of the floating lipid layer by aspiration, supernatant was separated and centrifuged at 12,000× g for 15 min. at 4 °C. The supernatant fraction, which is the post mitochondrial fraction (PMF), was used for isolation of rough endoplasmic reticulum (RER) enriched microsomes by precipitation with 8 mM CaCl2 added dropwise. The final concentration of CaCl2 was 7 mM. Resulting sample was centrifuged at 8000 g for 10 min. at 4 °C. The supernatant was discarded, and the pellet was suspended in isotonic extraction buffer (0.3 mL of buffer for each g of original tissue). The suspension was homogenized completely to afford RER enriched microsomes. In a 96-well flat transparent plate 25 µL of the isolated RER microsomes were incubated with 50 µL of test compounds in 67 mM PBS (pH 6.8) at 37 °C for 10 min. Then, p-nitrophenyl-α-D-glucopyranoside (Sigma #N1377, St. Louis, MO, USA) was added to 1 mM final concentration and increase in absorbance was recorded for 42 min at 405 nm wavelength with Infinite M200 PRO microplate reader (Tecan, Austria). Concentration of RER microsomes was adjusted to achieve an increase in optical density of ~0.2 in control samples after 30 min. of incubation. Test compounds were prepared as described above for the yeast α-glucosidase assay.

Another experiment relates to Klebsiella pneumonia. Kind of experiment: Antibacterial growth inhibition, K. pneumonia. The note with it: Klebsiella pneumoniae, ATCC700603, K. pneumonia Strain ATCC 700603. It counts as cell-based.
Experiment [2] has as its system methicillin-resistant Staphylococcus aureus (MRSA). Kind of experiment: Antibacterial growth inhibition, S. aureus. It counts as cell-based. Particulars: for inhibition at 32 µg/mL: Staphylococcus aureus, ATCC 43300 / MRSA, S. aureus Strain ATCC 43300.
The subject of another experiment is Escherichia coli. Kind of experiment: Antibacterial growth inhibition, E. coli. It counts as cell-based. Particulars: ATCC25922, E. coli Strain ATCC 25922.
A further experiment deals with Acinetobacter baumannii. Kind of experiment: Antibacterial growth inhibition, A. baumannii. It counts as cell-based. Particulars: ATCC27853, A. baumannii Strain ATCC 27853.
The subject of the next experiment is SR. Kind of experiment: NCI-60 SRB screen: leukemia SR. It counts as cell-based. Particulars: Homo sapiens, 48 h, single dose 10 µM, read-out: Percentage Cell Growth.
The next experiment concerns Cryptococcus neoformans. Kind of experiment: Antifungal growth inhibition, C. neoformans. Also noted: activity class in primary screening: dose or concentration left out as unconfirmed. The note with it: for inhibition at 32 µg/mL: Cryptococcus neoformans, ATCC208821, read-out: % Growth inhibition.
Experiment [3] concerns 60 human tumor cell lines. Kind of experiment: cells.
Experiment [4] relates to pathogenic microorganisms. Kind of experiment: Primary antimicrobial screening, five bacterial strains and two fungi. Set-up: dose or concentration left out as unconfirmed.
Procedure: The antifungal activity was determined against Candida albicans and Cryptococcus neoformans. […] Samples with inhibition value above 80% were classed as actives. Samples with inhibition values between 50 and 80% were classed as partial actives.
(§2) Samples were prepared in DMSO and water to a final testing concentration of 32 µg/mL, in 384-well, non-binding surface plate (NBS) for each bacterial/fungal strain, and in duplicate (n = 2) and keeping the final DMSO concentration to a maximum of 1% DMSO. All the sample-preparation was done using liquid handling robots.
All bacteria were cultured in cation-adjusted Mueller Hinton broth (CAMHB) at 37 °C overnight. A sample of each culture was then diluted 40-fold in fresh broth and incubated at 37 °C for 1.5–3 h. The resultant mid-log phase cultures were diluted (CFU/ ml measured by OD600), then added to each well of the compound containing plates, giving a cell density of 5 × 10^5 CFU/mL and a total volume of 50 µl. All the plates were covered and incubated at 37 °C for 18 h without shaking.
Inhibition of bacterial growth was determined measuring absorbance at 600 nm (OD600), using a Tecan M1000 Pro monochromator plate reader. The percentage of growth inhibition was calculated for each well, using negative control (media only) and positive control (bacteria without inhibitors) on the same plate as references. The significance of the inhibition values was determined by modified Z-scores, calculated using the median and MAD of the samples (no controls) on the same plate. Samples with inhibition value above 80% and Z-score above 2.5 for either replicate were classed as actives. […]
Fungi strains were cultured for 3 days on Yeast Extract-Peptone Dextrose (YPD) agar at 30 °C. A yeast suspension of 1 × 10^6 to 5 × 10^6 CFU/mL (as determined by OD530) was prepared from five colonies. […]
The absorbance was measured using a Biotek Synergy HTX plate reader. The percentage of growth inhibition was calculated for each well, using negative control (media only) and positive control (fungi without inhibitors) on the same plate. […]
Another experiment relates to Pseudomonas aeruginosa. Kind of experiment: Antibacterial growth inhibition, P. aeruginosa. It counts as cell-based. The note with it: P. aeruginosa Strain 19606.
The test system of the next experiment is Candida albicans. Kind of experiment: Antifungal growth inhibition, C. albicans. Particulars: ATCC90028, read-out: % Growth inhibition.

Where two headings read alike, the source gives them in different places. Some results are limits rather than exact numbers.

In general, IC50 refers to the concentration at which inhibition is half-maximal. The inhibition is the relative decrease from the control value, in per cent.

Procedure for Candida albicans: (§3) The antifungal activity was determined against Candida albicans and Cryptococcus neoformans.
as §2
(§4) Fungi strains were cultured for 3 days on Yeast Extract-Peptone Dextrose (YPD) agar at 30 °C. A yeast suspension of 1 × 10^6 to 5 × 10^6 CFU/mL (as determined by OD530) was prepared from five colonies. The suspension was subsequently diluted and added to each well of the compound-containing plates giving a final cell density of fungi suspension of 2.5 × 10^3 CFU/mL and a total volume of 50 µl. All plates were covered and incubated at 35 °C for 24 h without shaking.
(§5) The absorbance was measured using a Biotek Synergy HTX plate reader. The percentage of growth inhibition was calculated for each well, using negative control (media only) and positive control (fungi without inhibitors) on the same plate. The significance of the inhibition values was determined by modified Z-scores, calculated using the median and MAD of the samples (no controls) on the same plate. Samples with an inhibition value above 80% and Z-score above 2.5 for either replicate (n = 2 on different plates) were classed as actives. Samples with inhibition values between 50% and 80% and a Z-score above 2.5 for either replicate were classed as partial actives.
Procedure for Cryptococcus neoformans: as §3, §2, §4, §5

For the compound `C=C(C)[C@@H]1CC[C@]2(CO)CC[C@]3(C)[C@H](CC[C@@H]4[C@@]5(C)CCCNC(C)(C)[C@@H]5CC[C@]43C)[C@@H]12` [Compound 23], the IC50 at Yeast α-Glucosidase is more than 100 µM. The “Rat Liver ER Neutral α-Glucosidase Inhibition, m ± SD” value is −1.34 ± 2.22% in [1] (10 μM) and 5.85 ± 8.03% in [1] (100 μM).

As to `C=C(C)[C@@H]1CC[C@]2(C(=O)OC)CC[C@]3(C)[C@H](CC[C@@H]4[C@@]5(C)C/C(=C/NC(N)=O)C(=O)C(C)(C)[C@@H]5CC[C@]43C)[C@@H]12` [Compound 25], the inhibition at 32 µg/mL was 2.44% in the experiment on Klebsiella pneumonia; 19.8% in experiment [2]; -5.34% with Escherichia coli; 40.9% in the experiment on Acinetobacter baumannii; -7.93% with Cryptococcus neoformans; -8.92% in the experiment with Pseudomonas aeruginosa. In addition, the inhibition at 32 µg/mL in the experiment with Candida albicans came out at 14%. The IC50 at Yeast α-Glucosidase was 53.3 ± 5.7 µM. The activity at 10 µM in the experiment with SR was 21.2%; in experiment [3] (read-out: Mean Growth, %) it was 91.7%; in experiment [3] (read-out: Range of Growth, %), 21.2 to 112%. For the same compound, the “inhibition of growth of pathogenic microorganisms” value in experiment [4] is recorded as “did not inhibit the growth”. The entries for the “Rat Liver ER Neutral α-Glucosidase Inhibition, m ± SD” value in [1] (10 μM) and in experiment [1] (100 μM) were 8.76 ± 9.63% and 9.62 ± 6.94%, respectively.

`C=C(C)[C@@H]1CC[C@]2(C(=O)OC)CC[C@]3(C)[C@H](CC[C@@H]4[C@@]5(C)C/C(=C/NC(N)=S)C(=O)C(C)(C)[C@@H]5CC[C@]43C)[C@@H]12` [Compound 26]: the inhibition at 32 µg/mL in the experiment on Klebsiella pneumonia is -3.89%; in [2], 12.7%; in the experiment with Escherichia coli, -7.03%; with Acinetobacter baumannii, 28.2%; in the experiment on Cryptococcus neoformans it was -13%; in the experiment on Pseudomonas aeruginosa, -4.64%. In addition, the inhibition at 32 µg/mL in the experiment with Candida albicans came out at 5.83%. Further, the IC50 at Yeast α-Glucosidase was more than 100 µM. In addition, the activity at 10 µM in experiment [3] (read-out: Mean Growth, %) is 90.5%; in experiment [3] (read-out: Range of Growth, %) it was 60.9 to 126%. Further, in experiment [4], the “inhibition of growth of pathogenic microorganisms” value was “did not inhibit the growth”. For the same compound, the “Rat Liver ER Neutral α-Glucosidase Inhibition, m ± SD” value is 11.63 ± 9.09% in experiment [1] (10 μM) and 26.60 ± 13.03% in experiment [1] (100 μM).

In the case of `C=C(C)[C@@H]1CC[C@]2(COCCCN)CC[C@]3(C)[C@H](CC[C@@H]4[C@@]5(C)CC[C@H](OCCCN)C(C)(C)[C@@H]5CC[C@]43C)[C@@H]12` [Compound 18], the IC50 at Yeast α-Glucosidase was 5.7 ± 1.09 µM. For the same compound, the “Rat Liver ER Neutral α-Glucosidase Inhibition, m ± SD” value in [1] (10 μM) worked out at 56.64 ± 4.24 %; in experiment [1] (100 μM), 36.51 ± 14.90 %.

As for `C=C(C)[C@@H]1CC[C@]2(C(=O)N3CCCNCC3)CC[C@]3(C)[C@H](CC[C@@H]4[C@@]5(C)CCC(=O)C(C)(C)[C@@H]5CC[C@]43C)[C@@H]12` [Compound 2, 28-(1,4-Diazepan-1-yl)-28-oxolup-20(29)-en-3-one], the inhibition at 32 µg/mL in the experiment on Klebsiella pneumonia is 0.98%; in experiment [2], 40.3%; in the experiment on Escherichia coli, 1.96%; in the experiment with Acinetobacter baumannii, 33.1%; in the experiment on Cryptococcus neoformans it was -5.9%; with Pseudomonas aeruginosa it was 8.34%. Besides, the inhibition at 32 µg/mL with Candida albicans stood at 4.14%. In addition, the activity at 10 µM was 8.04% with SR; 89.5% in experiment [3] (read-out: Mean Growth, %); 8.04 to 127% in experiment [3] (read-out: Range of Growth, %). Moreover, the “inhibition of growth of pathogenic microorganisms” value in experiment [4] is “did not inhibit the growth”.

For `C=C(C)[C@@H]1CC[C@]2(C(=O)NCCCNCCCN)CC[C@]3(C)[C@H](CC[C@@H]4[C@@]5(C)CCC(=O)C(C)(C)[C@@H]5CC[C@]43C)[C@@H]12` [Compound 16], the IC50 at Yeast α-Glucosidase is more than 100 µM. The activity at 10 µM was 101% in experiment [3] (read-out: Mean Growth, %) and 59.3 to 141% in experiment [3] (read-out: Range of Growth, %). Further, the “Rat Liver ER Neutral α-Glucosidase Inhibition, m ± SD” value in experiment [1] (10 μM) was 9.05 ± 6.68%; in experiment [1] (100 μM), 14.94 ± 6.31%.

Regarding `C=C(C)[C@@H]1CC[C@]2(C=NCCCNCCCCN)CC[C@]3(C)[C@H](CC[C@@H]4[C@@]5(C)CCCNC(C)(C)[C@@H]5CC[C@]43C)[C@@H]12` [Compound 24], the IC50 on Yeast α-Glucosidase was more than 100 µM. Moreover, the activity at 10 µM with SR is 21.7%; in experiment [3] (read-out: Mean Growth, %), 93.6%; in experiment [3] (read-out: Range of Growth, %), 21.7 to 132%. Further, the “Rat Liver ER Neutral α-Glucosidase Inhibition, m ± SD” value in [1] (10 μM) is reported as 26.96 ± 2.33 %; in experiment [1] (100 μM), 54.62 ± 15.38 %.

Turning to `C=C(C)[C@@H]1CC[C@]2(C=NCCCNCCCCN)CC[C@]3(C)[C@H](CC[C@@H]4[C@@]5(C)CCC(=O)C(C)(C)[C@@H]5CC[C@]43C)[C@@H]12` [Compound 22], the IC50 on Yeast α-Glucosidase is more than 100 µM. In addition, the activity at 10 µM in experiment [3] (read-out: Mean Growth, %) is 102%; in [3] (read-out: Range of Growth, %), 80.5 to 123%. For the same compound, the “Rat Liver ER Neutral α-Glucosidase Inhibition, m ± SD” value in experiment [1] (10 μM) is on record as 31.42 ± 7.96 %; in experiment [1] (100 μM), 58.52 ± 8.21 %.

`C=C(C)[C@@H]1CC[C@]2(C(=O)NCCNCCN)CC[C@]3(C)[C@H](CC[C@@H]4[C@@]5(C)CCC(=O)C(C)(C)[C@@H]5CC[C@]43C)[C@@H]12` [Compound 12]: the inhibition at 32 µg/mL is 9.2% in the experiment with Klebsiella pneumonia; 71.8% in experiment [2]; -9.57% in the experiment with Escherichia coli; 19.5% in the experiment with Acinetobacter baumannii; 62.6% with Cryptococcus neoformans; 7.72% with Pseudomonas aeruginosa. Also, the inhibition at 32 µg/mL with Candida albicans stood at 11.7%. Besides, the “activity class in primary screening” value is listed as “partial activity” in [2] (methicillin-resistant S. aureus, one concentration of 32 µg/mL) and “partial activity” with Cryptococcus neoformans (C. neoformans, one concentration). Also, the IC50 on Yeast α-Glucosidase is more than 100 µM. Also, the activity at 10 µM is 98.9% in experiment [3] (read-out: Mean Growth, %) and 59.1 to 141% in experiment [3] (read-out: Range of Growth, %). Also, the results for the “Rat Liver ER Neutral α-Glucosidase Inhibition, m ± SD” value in experiment [1] (10 μM) and in experiment [1] (100 μM) were 10.21 ± 3.49% and 23.59 ± 1.34 %, respectively.

The values above are taken from publication PMC7587962, “Evaluation of Cytotoxicity and α-Glucosidase Inhibitory Activity of Amide and Polyamino-Derivatives of Lupane Triterpenoids” (Molecules, 2020).
